This note sets out measurements from ChEMBL document CHEMBL1949605, “Discovery of aminoheterocycles as potent and brain penetrant prolylcarboxypeptidase inhibitors” (Bioorg Med Chem Lett, 2012).

In data set [1] the target is T1, Lysosomal Pro-X carboxypeptidase (Mus musculus, UniProt Q7TMR0).
T1 sequence (Q7TMR0 whole entry): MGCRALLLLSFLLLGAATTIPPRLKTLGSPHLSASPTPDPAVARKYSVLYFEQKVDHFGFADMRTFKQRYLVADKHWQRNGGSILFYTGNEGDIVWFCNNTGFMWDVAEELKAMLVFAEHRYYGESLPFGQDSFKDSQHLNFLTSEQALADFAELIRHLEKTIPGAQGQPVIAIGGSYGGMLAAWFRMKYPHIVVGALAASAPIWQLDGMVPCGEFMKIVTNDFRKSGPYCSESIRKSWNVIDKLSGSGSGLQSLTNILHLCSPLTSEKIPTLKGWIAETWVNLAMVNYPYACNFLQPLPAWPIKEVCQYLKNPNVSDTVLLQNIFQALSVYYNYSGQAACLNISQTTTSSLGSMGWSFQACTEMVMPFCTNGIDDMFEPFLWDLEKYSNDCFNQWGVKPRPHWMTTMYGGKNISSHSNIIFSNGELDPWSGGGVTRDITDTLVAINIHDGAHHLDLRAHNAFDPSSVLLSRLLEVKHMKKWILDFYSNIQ
The experiment in a line: Inhibition of mouse recombinant PrCP assessed as angiotensin 3 cleavage after 8 mins by LC/MS analysis.

For data set [2], the target named is T1, Lysosomal Pro-X carboxypeptidase. The data set can be described thus: Inhibition of mouse recombinant PrCP using Mca-Ala-Pro-Lys(Dnp)-OH as substrate after 30 mins by fluorescence analysis.
Data set [3] is described as follows: Drug uptake in CF-1 mouse brain at 1 mg/kg, iv measured after 4 hrs post dosing. In kind it is ADME, organism-based. Details: dose 1 mg/kg, route intravenous. To be noted: read-out: Drug uptake.
Data set [4] can be described thus: Plasma concentration in CF-1 mouse at 1 mg/kg, iv measured after 4 hrs post dosing. The data set is classed as ADME, organism-based. Details: dose 1 mg/kg, route intravenous.
The nature of data set [5]: Ratio of drug uptake in brain to plasma of CF-1 mouse at 1 mg/kg, iv measured 4 hrs post-dosing. In kind it is ADME, organism-based. The arrangement: dose 1 mg/kg, route intravenous. To be noted: read-out: BPR.
The target of data set [6] is T2, Lysosomal Pro-X carboxypeptidase (Homo sapiens) (UniProt P42785).
T2 sequence (whole entry): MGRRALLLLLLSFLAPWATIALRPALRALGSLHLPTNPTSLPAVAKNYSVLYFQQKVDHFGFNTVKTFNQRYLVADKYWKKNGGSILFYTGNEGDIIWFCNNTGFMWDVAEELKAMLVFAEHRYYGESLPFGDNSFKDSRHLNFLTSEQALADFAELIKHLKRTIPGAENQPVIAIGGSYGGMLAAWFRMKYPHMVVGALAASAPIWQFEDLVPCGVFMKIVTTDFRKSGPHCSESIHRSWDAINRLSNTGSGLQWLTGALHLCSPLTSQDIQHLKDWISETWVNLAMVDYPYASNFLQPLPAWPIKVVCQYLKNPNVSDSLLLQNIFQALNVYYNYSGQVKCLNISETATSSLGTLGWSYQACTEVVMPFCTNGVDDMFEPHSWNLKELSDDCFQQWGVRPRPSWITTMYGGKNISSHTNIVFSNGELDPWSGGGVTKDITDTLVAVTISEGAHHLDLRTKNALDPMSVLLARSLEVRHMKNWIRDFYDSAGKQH
The experiment in a line: Inhibition of human recombinant PrCP using Mca-Ala-Pro-Lys(Dnp)-OH as substrate at 5 uM after 30 mins by fluorescence analysis.

Data set [7] deals with T3, Lysosomal Pro-X carboxypeptidase (Homo sapiens, UniProt P42785).
T3 sequence (P42785 whole entry): T2 sequence (whole entry)
The experiment in a line: Inhibition of human recombinant PrCP using Mca-Ala-Pro-Lys(Dnp)-OH as substrate after 30 mins by fluorescence analysis.

Usually IC50 stands for the point on the concentration scale where inhibition reaches its midpoint. Regarding `C[C@@H](c1ccc(-c2ccccc2)cc1)[C@H](NC(=O)C(C)(C)N)C(=O)N1CCC[C@H]1c1nc2cc(Cl)c(Cl)cc2[nH]1`, in data set [1], the half-maximal inhibitory concentration (IC50) was 0.025 µM.

As to `Clc1cc2nc([C@@H]3CCCN3c3cc(N4CCC(c5ccccn5)C4)ncn3)[nH]c2cc1Cl` (mixture of isomers), the half-inhibitory concentration (IC50) in data set [1] is over 20 µM.

As to `COc1ccc(C2CN(c3cc(N4CCC[C@H]4c4nc5cc(Cl)c(Cl)cc5[nH]4)ncn3)CCO2)cc1` (stereo not given in full), the IC50 was 0.046 µM in data set [2] and 9 µM in data set [1].

`OC1(c2ccccc2)CCN(c2cc(N3CCC[C@H]3c3nc4cc(Cl)c(Cl)cc4[nH]3)ncn2)C1` (mixture of isomers): the IC50 in data set [1] is over 20 µM.

For the molecule `C[C@@H](c1ccc(Cl)cc1)N(C)c1cc(N2CCCC(C(C)(C)O)C2)ncn1` (mixture of isomers), the IC50 in data set [2] amounted to 0.797 µM; in data set [1], 5 µM.

`COC(=O)N[C@H]1CC[C@H](Nc2cc(N[C@@H](C)c3ccc(Cl)cc3)ncn2)CC1`: the IC50 in data set [2] came out at 0.026 µM; in data set [1], 0.159 µM.

As for `C[C@H](Nc1cc(N[C@H]2CC[C@H](NS(C)(=O)=O)CC2)ncn1)c1ccc(Cl)cc1`, in data set [2], the IC50 is 0.105 µM.

As for `C[C@H](Nc1cc(N2CCCC(C(C)(C)O)C2)ncn1)c1ccc(Cl)cc1` (stereo not given in full), the concentration at 4 h in data set [3] is 400 nM; in data set [4] it was 291 nM. Also, the Kp at 4 h in data set [5] was determined as 1.4.

Take `Clc1cc2nc([C@@H]3CCCN3c3cc(N4CCCC(N5CCc6c(cccc6-c6cccnc6)C5)C4)ncn3)[nH]c2cc1Cl` (stereo in doubt; 28b): the IC50 turned out to be 0.018 µM in data set [2] and 0.355 µM in data set [1].

In general, inhibition refers to the change of the read-out against control, counted positive when it falls. In the case of `FC(F)(F)c1ccccc1-c1ccnc(N2CCC[C@H]2c2nc3cc(Cl)c(Cl)cc3[nH]2)c1`, in data set [6], the inhibition was 46%.

Consider `C[C@H](Nc1cc(N[C@H]2CC[C@H](c3ccccc3)CC2)ncn1)c1ccc(Cl)cc1`, for which the IC50 in data set [2] turned out to be 0.075 µM.

In the case of `Clc1cc2nc([C@@H]3CCCN3c3cc(N4CCN(Cc5ccccc5)CC4)ncn3)[nH]c2cc1Cl`, the figures for the concentration for half-maximal inhibition (IC50) in data set [2] and in data set [1] were 0.413 µM and over 20 µM, respectively.

`Clc1cc2nc([C@@H]3CCCN3c3cc(NCC4CCCCC4)ncn3)[nH]c2cc1Cl`: in data set [7], the IC50 was over 10 µM.

On to `Clc1cc2nc([C@@H]3CCCN3c3cc(N4CCO[C@@H](c5ccccc5)C4)ncn3)[nH]c2cc1Cl`, for which, in data set [1], the half-maximal inhibitory concentration (IC50) was over 20 µM. The concentration at 4 h came to 242 nM in data set [3] and 304 nM in data set [4]. Moreover, the Kp at 4 h in data set [5] stood at 0.79.

Take `C[C@@H](c1ccc(Cl)cc1)N(C)c1cc(N2CCCC(C(C)(C)O)C2)ncn1` (stereo in doubt; 36a): the IC50 in data set [2] was found to be 0.146 µM; in data set [1], 2.21 µM.

For `CC(C)(O)C1CCCN(c2cc(N3CCC[C@H]3c3nc4cc(Cl)c(Cl)cc4[nH]3)ncn2)C1` (mixture of isomers), the IC50 in data set [1] is over 20 µM.

With `Clc1cc2nc([C@@H]3CCCN3c3cc(N4CCO[C@H](c5ccccc5)C4)ncn3)[nH]c2cc1Cl`, the 50% inhibitory concentration (IC50) in data set [1] was over 20 µM.

For the molecule `Clc1cc2nc([C@@H]3CCCN3c3cc(N4CCCC(N5CCc6c(cccc6-c6cccnc6)C5)C4)ncn3)[nH]c2cc1Cl` (stereo in doubt; 28a), the IC50 worked out at 0.01 µM in data set [2] and 0.345 µM in data set [1]. Moreover, the concentration at 4 h in data set [3] came out at 108 nM; in data set [4], 367 nM. Moreover, the Kp at 4 h in data set [5] came out at 0.29.

In the case of `Clc1cc2nc([C@@H]3CCCN3c3cc(N4CCC(Cn5cccn5)CC4)ncn3)[nH]c2cc1Cl`, the concentration for half-maximal inhibition (IC50) was 0.206 µM in data set [2] and over 20 µM in data set [1].
